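Step 1: Grow cells in 96-well plates. Step 2: Expose to compound for 48 hours at 5 concentrations. Step 3: Interpolate endpoints linearly; if unreached, use highest concentration. At the GI50, growth is halved. The concentration for full growth arrest is given as TGI.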
Legend:
Assay in all cases: NCI tumour cell line growth inhibition, 48 h
NCI/ADR-RES ovarian = system: NCI/ADR-RES ovarian
TK-10 renal = system: TK-10 renal
DU-145 prostate = system: DU-145 prostate
SF-539 CNS = system: SF-539 CNS
HOP-92 NSCLC = system: HOP-92 NSCLC
OVCAR-5 ovarian = system: OVCAR-5 ovarian
HCT-15 colon = system: HCT-15 colon
CAKI-1 renal = system: CAKI-1 renal
A498 renal = system: A498 renal
SF-295 CNS = system: SF-295 CNS
SN12C renal = system: SN12C renal
SK-OV-3 ovarian = system: SK-OV-3 ovarian
MDA-MB-231 breast = system: MDA-MB-231 breast
SK-MEL-28 melanoma = system: SK-MEL-28 melanoma
HCT-116 colon = system: HCT-116 colon
COLO 205 colon = system: COLO 205 colon
T-47D breast = system: T-47D breast
786-0 renal = system: 786-0 renal
HT29 colon = system: HT29 colon
IGROV1 ovarian = system: IGROV1 ovarian
HL-60(TB) leukemia = system: HL-60(TB) leukemia
UO-31 renal = system: UO-31 renal
RXF 393 renal = system: RXF 393 renal
SNB-75 CNS = system: SNB-75 CNS
M14 melanoma = system: M14 melanoma
UACC-62 melanoma = system: UACC-62 melanoma
A549 NSCLC = system: A549 NSCLC
UACC-257 melanoma = system: UACC-257 melanoma
BT-549 breast = system: BT-549 breast
ACHN renal = system: ACHN renal
RPMI-8226 leukemia = system: RPMI-8226 leukemia
SK-MEL-5 melanoma = system: SK-MEL-5 melanoma
PC-3 prostate = system: PC-3 prostate
EKVX NSCLC = system: EKVX NSCLC
K-562 leukemia = system: K-562 leukemia
CCRF-CEM leukemia = system: CCRF-CEM leukemia
LOX IMVI melanoma = system: LOX IMVI melanoma
OVCAR-3 ovarian = system: OVCAR-3 ovarian
MOLT-4 leukemia = system: MOLT-4 leukemia
KM12 colon = system: KM12 colon
MALME-3M melanoma = system: MALME-3M melanoma
NCI-H460 lung = system: NCI-H460 lung
HOP-62 NSCLC = system: HOP-62 NSCLC
SR leukemia = system: SR leukemia
SK-MEL-2 melanoma = system: SK-MEL-2 melanoma
SW-620 colon = system: SW-620 colon
NCI-H226 lung = system: NCI-H226 lung
HCC-2998 colon = system: HCC-2998 colon
OVCAR-4 ovarian = system: OVCAR-4 ovarian
NCI-H23 lung = system: NCI-H23 lung
U251 CNS = system: U251 CNS
MDA-MB-435 = system: MDA-MB-435
MCF7 breast = system: MCF7 breast
SNB-19 CNS = system: SNB-19 CNS
OVCAR-8 ovarian = system: OVCAR-8 ovarian
NCI-H522 lung = system: NCI-H522 lung
SF-268 CNS = system: SF-268 CNS

In the case of `CCCCCCCCCCCCC[N+](C)(C)Cc1ccccc1`, the GI50 (NCI/ADR-RES ovarian) is reported as 18 µM, the TGI (NCI/ADR-RES ovarian) is reported as 50.5 µM and the GI50 (TK-10 renal) is reported as 0.871 µM. The TGI (TK-10 renal) was 2.21 µM, the GI50 (DU-145 prostate) was 1.42 µM and the TGI (DU-145 prostate) was 2.74 µM. For the same compound, the GI50 (SF-539 CNS) was 1.45 µM, the TGI (SF-539 CNS) was 2.97 µM and the GI50 (HOP-92 NSCLC) was 0.338 µM. For the same compound, the TGI (HOP-92 NSCLC) was 1.83 µM, the GI50 (OVCAR-5 ovarian) was 1.47 µM and the TGI (OVCAR-5 ovarian) was 2.92 µM. For the same compound, the GI50 (HCT-15 colon) was 5.08 µM, the TGI (HCT-15 colon) was 25.4 µM and the GI50 (CAKI-1 renal) was 4.99 µM. It also gave a TGI (CAKI-1 renal) of 23 µM, a GI50 (A498 renal) of 1.44 µM and a TGI (A498 renal) of 5.01 µM. The GI50 (SF-295 CNS) was 1.42 µM, the TGI (SF-295 CNS) was 2.87 µM and the GI50 (SN12C renal) was 1.2 µM. The TGI (SN12C renal) was 2.61 µM, the GI50 (SK-OV-3 ovarian) was 1.31 µM and the TGI (SK-OV-3 ovarian) was 2.6 µM. For the same compound, the GI50 (MDA-MB-231 breast) was 1.35 µM, the TGI (MDA-MB-231 breast) was 2.9 µM and the GI50 (SK-MEL-28 melanoma) was 1.52 µM. The TGI (SK-MEL-28 melanoma) was 2.89 µM, the GI50 (HCT-116 colon) was 0.925 µM and the TGI (HCT-116 colon) was 2.14 µM. The GI50 (COLO 205 colon) was 1.14 µM, the TGI (COLO 205 colon) was 2.45 µM and the GI50 (T-47D breast) was 0.336 µM. The TGI (T-47D breast) was 1.71 µM, the GI50 (786-0 renal) was 1.56 µM and the TGI (786-0 renal) was 3.07 µM. For the same compound, the GI50 (HT29 colon) was 0.493 µM, the TGI (HT29 colon) was 1.93 µM and the GI50 (IGROV1 ovarian) was 0.477 µM. For the same compound, the TGI (IGROV1 ovarian) was 1.82 µM, the GI50 (HL-60(TB) leukemia) was 0.68 µM and the TGI (HL-60(TB) leukemia) was 2.15 µM. For the same compound, the GI50 (UO-31 renal) was 2.05 µM, the TGI (UO-31 renal) was 6.42 µM and the GI50 (RXF 393 renal) was 0.385 µM. For the same compound, the TGI (RXF 393 renal) was 1.6 µM, the GI50 (SNB-75 CNS) was 1.5 µM and the TGI (SNB-75 CNS) was 2.97 µM. The GI50 (M14 melanoma) was 1.04 µM, the TGI (M14 melanoma) was 2.4 µM and the GI50 (UACC-62 melanoma) was 0.633 µM. For the same compound, the TGI (UACC-62 melanoma) was 1.95 µM, the GI50 (A549 NSCLC) was 1.61 µM and the TGI (A549 NSCLC) was 3.17 µM. The GI50 (UACC-257 melanoma) was 1.36 µM, the TGI (UACC-257 melanoma) was 2.85 µM and the GI50 (BT-549 breast) was 1.13 µM. It also gave a TGI (BT-549 breast) of 2.42 µM, a GI50 (ACHN renal) of 3.41 µM and a TGI (ACHN renal) of 12.8 µM. For the same compound, the GI50 (RPMI-8226 leukemia) was 0.451 µM, the TGI (RPMI-8226 leukemia) was 2.52 µM and the GI50 (SK-MEL-5 melanoma) was 0.874 µM. The TGI (SK-MEL-5 melanoma) was 2.11 µM, the GI50 (PC-3 prostate) was 0.306 µM and the TGI (PC-3 prostate) was 1.4 µM. For the same compound, the GI50 (EKVX NSCLC) was 1.57 µM and the TGI (EKVX NSCLC) was 4.52 µM.

For `CC[C@]12C=CCN3CC[C@]4(C(=C(C(=O)OC)C1)Nc1cc(OC)c(OC(C)=O)cc14)[C@@H]32`, the GI50 (NCI/ADR-RES ovarian) was 0.339 µM, the TGI (NCI/ADR-RES ovarian) was 89.9 µM and the GI50 (TK-10 renal) was 1.02 µM. It also gave a TGI (TK-10 renal) of 7.51 µM, a GI50 (K-562 leukemia) of 0.274 µM and a TGI (K-562 leukemia) of 15.4 µM. The GI50 (CCRF-CEM leukemia) was 0.38 µM, the TGI (CCRF-CEM leukemia) was 1.86 µM and the GI50 (LOX IMVI melanoma) was 0.254 µM. It also gave a TGI (LOX IMVI melanoma) of 1.27 µM, a GI50 (OVCAR-3 ovarian) of 0.225 µM and a TGI (OVCAR-3 ovarian) of 0.602 µM. It also gave a GI50 (MOLT-4 leukemia) of 0.383 µM, a TGI (MOLT-4 leukemia) of 14.9 µM and a GI50 (KM12 colon) of 0.303 µM. The TGI (KM12 colon) was 2.64 µM, the GI50 (MALME-3M melanoma) was 1.42 µM and the TGI (MALME-3M melanoma) was 16.1 µM. It also gave a GI50 (NCI-H460 lung) of 0.36 µM, a TGI (NCI-H460 lung) of 11.6 µM and a GI50 (HOP-92 NSCLC) of 0.247 µM. For the same compound, the TGI (HOP-92 NSCLC) was 10.3 µM, the GI50 (OVCAR-5 ovarian) was 0.719 µM and the TGI (OVCAR-5 ovarian) was 16.2 µM. For the same compound, the GI50 (HOP-62 NSCLC) was 0.4 µM, the TGI (HOP-62 NSCLC) was 14.1 µM and the GI50 (SR leukemia) was 0.164 µM. For the same compound, the TGI (SR leukemia) was 11.2 µM, the GI50 (HCT-15 colon) was 0.31 µM and the TGI (HCT-15 colon) was 1.56 µM. It also gave a GI50 (SK-MEL-2 melanoma) of 0.689 µM, a TGI (SK-MEL-2 melanoma) of 23 µM and a GI50 (SW-620 colon) of 0.319 µM. For the same compound, the TGI (SW-620 colon) was 10.5 µM, the GI50 (CAKI-1 renal) was 0.503 µM and the TGI (CAKI-1 renal) was 15.6 µM. It also gave a GI50 (A498 renal) of 0.133 µM, a TGI (A498 renal) of 0.718 µM and a GI50 (SF-295 CNS) of 0.377 µM. The TGI (SF-295 CNS) was 14.6 µM, the GI50 (SN12C renal) was 0.53 µM and the TGI (SN12C renal) was 14.8 µM. For the same compound, the GI50 (NCI-H226 lung) was 0.917 µM, the TGI (NCI-H226 lung) was 21.9 µM and the GI50 (SK-OV-3 ovarian) was 0.325 µM. The TGI (SK-OV-3 ovarian) was 12.5 µM, the GI50 (MDA-MB-231 breast) was 0.389 µM and the TGI (MDA-MB-231 breast) was 14.5 µM. The GI50 (SK-MEL-28 melanoma) was 1.62 µM, the TGI (SK-MEL-28 melanoma) was 12.5 µM and the GI50 (HCT-116 colon) was 0.275 µM. It also gave a TGI (HCT-116 colon) of 1.38 µM, a GI50 (HCC-2998 colon) of 0.416 µM and a TGI (HCC-2998 colon) of 6.79 µM. It also gave a GI50 (COLO 205 colon) of 0.769 µM, a TGI (COLO 205 colon) of 4.52 µM and a GI50 (T-47D breast) of 1.42 µM. For the same compound, the TGI (T-47D breast) was 17.8 µM, the GI50 (OVCAR-4 ovarian) was 0.446 µM and the TGI (OVCAR-4 ovarian) was 17.5 µM. The GI50 (NCI-H23 lung) was 0.395 µM, the TGI (NCI-H23 lung) was 18.8 µM and the GI50 (786-0 renal) was 0.318 µM. The TGI (786-0 renal) was 10 µM, the GI50 (U251 CNS) was 0.386 µM and the TGI (U251 CNS) was 12 µM. For the same compound, the GI50 (MDA-MB-435) was 0.1 µM, the TGI (MDA-MB-435) was 0.319 µM and the GI50 (HT29 colon) was 1.86 µM. For the same compound, the TGI (HT29 colon) was 11 µM, the GI50 (MCF7 breast) was 0.238 µM and the TGI (MCF7 breast) was 14.4 µM. The GI50 (IGROV1 ovarian) was 0.473 µM, the TGI (IGROV1 ovarian) was 20.4 µM and the GI50 (SNB-19 CNS) was 0.591 µM. For the same compound, the TGI (SNB-19 CNS) was 21.5 µM, the GI50 (HL-60(TB) leukemia) was 0.184 µM and the TGI (HL-60(TB) leukemia) was 0.654 µM. For the same compound, the GI50 (OVCAR-8 ovarian) was 0.407 µM, the TGI (OVCAR-8 ovarian) was over 100 µM and the GI50 (UO-31 renal) was 0.483 µM. For the same compound, the TGI (UO-31 renal) was 5.6 µM, the GI50 (RXF 393 renal) was 0.389 µM and the TGI (RXF 393 renal) was 8.88 µM. The GI50 (SNB-75 CNS) was 0.308 µM, the TGI (SNB-75 CNS) was 21 µM and the GI50 (M14 melanoma) was 0.181 µM. It also gave a TGI (M14 melanoma) of 0.684 µM, a GI50 (NCI-H522 lung) of 0.0819 µM and a TGI (NCI-H522 lung) of 1.04 µM. The GI50 (UACC-62 melanoma) was 0.326 µM, the TGI (UACC-62 melanoma) was 3.08 µM and the GI50 (A549 NSCLC) was 0.397 µM. For the same compound, the TGI (A549 NSCLC) was 19 µM, the GI50 (UACC-257 melanoma) was 1.97 µM and the TGI (UACC-257 melanoma) was 17.5 µM. The GI50 (BT-549 breast) was 0.244 µM, the TGI (BT-549 breast) was 0.674 µM and the GI50 (ACHN renal) was 0.176 µM. For the same compound, the TGI (ACHN renal) was 2.62 µM, the GI50 (RPMI-8226 leukemia) was 0.478 µM and the TGI (RPMI-8226 leukemia) was 12.3 µM. It also gave a GI50 (SK-MEL-5 melanoma) of 0.209 µM, a TGI (SK-MEL-5 melanoma) of 0.481 µM and a GI50 (PC-3 prostate) of 0.384 µM. For the same compound, the TGI (PC-3 prostate) was 15.2 µM, the GI50 (EKVX NSCLC) was 0.625 µM and the TGI (EKVX NSCLC) was 19.3 µM. It also gave a GI50 (SF-268 CNS) of 0.399 µM and a TGI (SF-268 CNS) of 13.2 µM.

— PubChem BioAssay (NCI)
